For data set [1] the following is noted: cited from earlier work.
The conditions of data set [2]: in vivo; cited from earlier work.
Data set [3] can be described thus: Oxidative degradation of clevidipine: influence of oxygen content in headspace (H324/78). Type of data set: physicochemical. Conditions: exposed to ambient light. The text has this: Nanoparticle formulations with clevidipine (formulation numbers 31, 40 and 42) as well as clevidipine solutions were purged either with nitrogen or compressed air, and exposed to ambient light to determine the effect of head space oxygen on the formation of oxidative degradation product, H324/78.

As to `CCCC(=O)OCOC(=O)C1=C(C)NC(C)=C(C(=O)OC)C1c1cccc(Cl)c1Cl` (centres unmarked) [Clevidipine, clevidipine], in data set [1], the Solubility in lipids entry was “moderate” and the Solubility in water result is recorded as “negligible”. The Initial phase half-life result in data set [2] is “about one minute”. The “H324/78 (% Area)” value in data set [3] (purged with compressed air (Air)) came to 3.06 % Area. In addition, the “H324/78 (% Area)” value in data set [3] (purged with nitrogen (N2)) was 2.54 % Area.

The values are drawn from patent publication US11737989B2, “Clevidipine nanoparticles and pharmaceutical compositions thereof” (CHIESI Farmaceutici S.p.A., priority 2014, dated 2023).
